Source: patent US7855174B2 (priority 2007, dated 2010)
Read-outs that look alike come from different tables or passages of the source.

Tests used:
rat mesenteric arteries = experiment: tissue or blood
MLC = test system: MLC; set-up: species or system rat

`NC[C@H](O)c1ccc(O)c(O)c1` [NE, norepinephrine] gave an EC50 (rat mesenteric arteries; read-out: EC50 of concentration-contraction relationship) of 1100 nM, an EC50 (rat mesenteric arteries; read-out: apparent EC50 for NE (contraction)) of 34 nM and an EC50 (rat mesenteric arteries; read-out: approximate EC50 in isolated vessels) of ~1000 nM. The “change of Ser19 pMLC and total pMLC with concentration” value (MLC) was “increases in both total pMLC and Ser19 pMLC”.
